Assay results taken from US8349365B2, “Cellooligosaccharide-containing composition” (priority 2005, dated 2013).
Values belong to the compound of their own block, whether it stands above or below them.

What was measured:
[1] = oil retention (rapeseed oil); assay type: physicochemical; settings: same manner as in Example 4
Excerpt: The oil retention of the cellooligosaccharide composition of the present invention is preferably 0.9 g/g. The term “oil retention” means the amount of oil absorbed per 1 g of powder measured by placing 2 g of a cellooligosaccharide composition on a glass plate, kneading powder with a spatula while adding rapeseed oil (Nissin Canola Oil, dropwise using a pipette, and using the point at which oil soaks out of the powder surface as the end point and is expressed by Oil retention (g/g)=amount of oil absorption (g)/amount of cellooligosaccharide composition (g). A greater value is preferable because separation or soaking out of oil, semisolid or liquid can be prevented when a food, a cosmetic, a drug, or a quasi-drug is produced with a prescription containing oil or a prescription containing a semisolid or a liquid at room temperature. The oil retention is more preferably in the range of 1.0 g/g and higher, particularly preferably in the range of 1.1 g/g and higher.

[2] = system: rough skin, inner side of the forearm; experiment: transepidermal water loss (TEWL) recovery test; assay type: in vivo, human
Excerpt: The barrier function in the present invention is expressed by the recovery-promoting rate of transepidermal water loss, and the recovery-promoting rate of transepidermal water loss of the agent for improving barrier function of the present invention is preferably 10% or higher. The recovery-promoting rate referred to herein is expressed by a decreasing rate of relative transepidermal water loss of the cellooligosaccharide-containing composition to a relative transepidermal water loss of purified water using a relative transepidermal water loss 2 hours after applications of the aqueous cellooligosaccharide solution and a relative transepidermal water loss obtained from purified water to the rough skin. This value is obtained by the following expression. Recovery-promoting rate(%)=([relative transepidermal water loss of water)−[relative transepidermal water loss of cellooligosaccharide-containing composition]/(relative transepidermal water loss of water)×100
Furthermore, a relative value of the above-mentioned transepidermal water loss (relative transepidermal water loss) can be measured by transepidermal water loss (TEWL) in the rough skin. First, the inner side of the forearm (test site) is wiped with 70% ethanol and habituated in a room with a constant temperature and a humidity (room temperature 22° C., humidity 45%) for 15 minutes, and the test site is measured with a 2-channel moisture loss monitor (manufactured by Asahi Biomed, TW-AS type to obtain the initial TEWL value (TEWEL0). Then, after measurement of the initial TEWL, the test site is washed with water, the test site is coated with 2% by mass of sodium dodecylsulfate (SDS, by a closed patch and washed with water using a Finn chamber (manufactured by Epitest), and then TEWL (TSWL rough skin) is measured in the same manner as described above. Then purified water or the aqueous cellooligosaccharide solution of the present invention is applied to the same site, and TEWL at the site is measured 2 hours after application (TEWL2) by the above-described method. […]

oil retention [1]: 0.85
Structure (SMILES): OC[C@H]1O[C@@H](O[C@H]2[C@H](O)[C@@H](O)[C@H](O)O[C@@H]2CO)[C@H](O)[C@@H](O)[C@@H]1O [D-cellobiose]

Structure (SMILES): OC[C@H]1O[C@H](OC[C@H]2O[C@H](O[C@]3(CO)O[C@H](CO)[C@@H](O)[C@@H]3O)[C@H](O)[C@@H](O)[C@@H]2O)[C@H](O)[C@@H](O)[C@H]1O [compound 9, raffinose]
relative TEWL value after 2 hours ([2]; SDS-treated forearm skin of 3 male and 2 female subjects, rough skin taken as 100, 2 hours after application): 42.1%
TEWL RECOVERY-PROMOTING RATE AFTER 2 HOURS ([2]; relative to purified water, 2 hours after application): −7.1%

Structure (SMILES): OC[C@H]1O[C@H](OC[C@H]2O[C@H](O[C@]3(CO)O[C@H](CO)[C@@H](O)[C@@H]3O)[C@H](O)[C@@H](O)[C@@H]2O)[C@H](O)[C@@H](O)[C@H]1O [compound 13, raffinose]
relative TEWL value ([2]; measured in the same manner as in Examples 19 to 23, 5% by mass): 42.1%
